# What was measured:
# egg yolk = experiment: Egg yolk colour: reflectance colorimetry and Roche Yolk Colour Fan; type: in vivo, laying hens (ISA Brown); design: key to Chroma C*ab Value: CIE L*a*b* chroma C* value; key to Color Fan Value / Color Fan Value Value: visual score on Roche Yolk Colour Fan (RYCF, 1993 version); key to Color Fan Value, Pigmentation: − = off color; + = good color; details: laying hens
# In short: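 ISA Brown laying hens, depleted at least 28 days on low-carotenoid basal diet (<2 mg xanthophylls/kg), fed pigment-supplemented mash ad libitum for three weeks. Pooled yolks of three to six eggs scored with Roche Yolk Colour Fan and measured by reflectance colorimetry (D65, 8°) as CIE L*a*b*, h*, C*; values average four yolk pools.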
# [1] = Carotenoid ester content and deposition rate in egg yolk of laying hens (HPLC); type: in vivo, laying hens (ISA Brown); design: Deposition Rate Value: unit not given here
# In short: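 Hens were first depleted for at least 28 days on a low-carotenoid basal diet (<2 mg total xanthophylls/kg, also the control diet), then fed mash supplemented with the pigments ad libitum for three weeks. Pooled homogenised yolk was extracted with ethanol/n-hexane and analysed by HPLC, calibrated with all-E ethyl β-apo-8′-carotenoate. Response factors were adjusted by molecular weight, and Z-isomers were corrected by a factor of 1.4.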
# [2] = egg yolk, average over doses, Table 7
# [3] = egg yolk, average over doses, Table 9
# [4] = egg yolk, trial H-25/99, 5.0 mg/kg feed
# [5] = egg yolk, trial H-25/99, 5.0 mg/kg feed, Table 9
compound,measurement,setting,value
"CCCC(C)OC(=O)C(C)=CC=CC(C)=CC=CC=C(C)C=CC=C(C)C=CC1=C(C)CCCC1(C)C (stereo not drawn) [compound (19), 2-pentyl beta-apo-8′-carotenoate]",Color Fan Value % of Controls,egg yolk; [2],87%
same,Chroma C*ab % of Controls,egg yolk; [3],113%
same,Color Fan Value % of Controls,egg yolk; [3],87%
same,Color Hue h*ab % of Controls,egg yolk; [3],96%
same,Chroma C*ab % of Controls,egg yolk; [4],113%
same,Chroma C*ab Value,egg yolk; [4],58
same,Color Fan Value,egg yolk; [4],7
same,Color Fan Value % of Controls,egg yolk; [4],87%
same,"Color Fan Value, Pigmentation",egg yolk; [4],+
same,Color Hue h*ab % of Controls,egg yolk; [4],96%
same,Color Hue h*ab Value,egg yolk; [4],82
same,Color Fan Value % of Controls,egg yolk; [5],87%
same,Color Fan Value Value,egg yolk; [5],7
same,"Color Fan Value, Pigmentation",egg yolk; [5],+
same,quality in terms of deposition rate and color intensity (chroma C*a*b*) in the egg yolk,egg yolk; compared to the control,comparable quality
same,Deposition Rate Target Values % of Controls,[1]; [2],101%
same,Ethyl β-apo-8′-carotenoate Equivalents % of Controls,[1]; [2],94%
same,Deposition Rate % of Controls,[1]; [3],101%
same,Deposition Rate Target Values,[1]; [4],51.2%
same,Deposition Rate Target Values % of Controls,[1]; [4],101%
same,Ethyl β-apo-8′-carotenoate Equivalents,[1]; [4],14.6 mg/kg
same,Ethyl β-apo-8′-carotenoate Equivalents % of Controls,[1]; [4],94%
same,Deposition Rate % of Controls,[1]; [5],101%
same,Deposition Rate Value,[1]; [5],51
same,concentration in the egg yolk,[1]; versus the control,in the range of the control
